One experiment concerns GP2d cells. The experiment can be described thus: Cellular proliferation assay in GP2d cells (CellTiterGlo luminescent cell viability assay). Format: cell-based. The note with it: 72 hours treatment, CellTiter-Glo. The procedure: Example 32: Cellular Proliferation Assay in GP2d Cells
The inhibitory effect of test compounds on cellular proliferation was determined using CellTiterGlo® luminescent cell viability assay (Promega) following manufacturer's instruction.
GP2d cells (ECACC #95090715) were cultured in DMEM medium supplemented with 10% fetal bovine serum, 10 U/ml penicillin and 10 ug/ml streptomycin. Cells were plated in 96-well plates at a density of 2000 cells/well and allowed attach for […]. Then the cells were treated with various concentrations of test compounds for 72 hours. CellTiter-Glo® Reagent was added to wells and incubated for 10 minutes at room temperature. The plates were read on GloMax® 96 Microplate Luminometer or compatible microplate readers. The percentage of cellular viability was calculated as: […]
Background: In ATP-based viability assays light output follows the ATP content of the culture.

For the next experiment, the system named is p-ERK in AGS cells. Description: p-ERK assay in AGS cells (fixed cells, anti-p-ERK / β-Actin antibodies, IR imaging). It is filed as cell-based. The note with it: Homo sapiens, 3 h at 37° C., p-ERK detected by antibody with β-Actin, IR fluorescence. How it is done:
The expression of p-ERK was detected in this assay. At first, the AGS cells (40000 cells/well) were seeded in 96-well plate culture overnight and treated with KRAS-G12D compounds inhibitors at concentrations of 1, 0.33, 0.11, 0.03, 0.01, 0.004, 0.001, 0.0004, 0.0001 μM for 3 h at 37° C. Then, add an equal volume (100 μL) of 8% paraformaldehyde solution to fix and crosslink the cells to the microplate for 15 minutes. Add 100 μL of 1× permeabilization solution to wells for 30 min and add 100 μL of 1× blocking solution for 2 h. Wash with PBS 3 times after each reaction. At last, Incubation with primary antibody (Anti-mouse β-Actin and Anti-rabbit p-ERK) and secondary antibody (Goat anti-Mouse IgG H&L IRDye 800CW and Goat anti-Rabbit IgG H&L IRDye 680RW) for 2 h, As appropriate, image the microplate with an IR scanner or develop the HRP labeled microplate and read it with a spectrophotometer. The fluorescence signal was monitored using a microplate reader (Azure biosystems, Sapphire biomolecular imager) using excitation and emission wavelengths of 680 and 800 nm, respectively. Export data. The inhibitor dose-reponse curves were analyzed using normalized IC50 regression curve fitting with control based normalization.

Our source for the IC50 values is patent US20250276982A1, “KRAS INHIBITORS” (ASCENTAGE PHARMA (SUZHOU) CO., LTD., priority 2021, published 2025).

One may read the IC50 as the concentration needed to halve the response being measured. Consider `OCC1Cc2ccc3cc(O)cc(-c4ncc5c(N6C[C@H]7CC[C@@H](C6)N7)nc(OC[C@@]67CCCN6C[C@H](F)C7)nc5c4F)c3c2C1` (stereo partly drawn) [Example 18, 9-(4-((1R,5S)-3,8-diazabicyclo[3.2.1]octan-3-yl)-8-fluoro-2-(((2R,7aS)-2-fluorotetrahydro-1H-pyrrolizin-7a(5H)-yl)methoxy)pyrido[4,3-d]pyrimidin-7-yl)-2-(hydroxymethyl)-2,3-dihydro-1H-cyclopenta[a]naphthalen-7-ol], for which the IC50 in the experiment on GP2d cells is 17 µM; in the experiment on p-ERK in AGS cells it was 0.24 µM.

With `Fc1c(-c2cccc3ccc4c(c23)CCO4)ncc2c(N3C[C@H]4CC[C@@H](C3)N4)nc(OC[C@@]34CCCN3C[C@H](F)C4)nc12` [Example 3, 4-((1R,5S)-3,8-diazabicyclo[3.2.1]octan-3-yl)-7-(1,2-dihydronaphtho[2,1-b]furan-9-yl)-8-fluoro-2-(((2R,7aS)-2-fluorotetrahydro-1H-pyrrolizin-7a(5H)-yl)methoxy)pyrido[4,3-d]pyrimidine], the 50% inhibitory concentration (IC50) in the experiment with GP2d cells and in the experiment with p-ERK in AGS cells was 8.8 µM in each case.

On to `Oc1cc(-c2ncc3c(N4C[C@H]5CC[C@@H](C4)N5)nc(OC[C@@]45CCCN4C[C@H](F)C5)nc3c2F)c2c3c(ccc2c1)OCC3` [Example 6, 9-(4-((1R,5S)-3,8-diazabicyclo[3.2.1]octan-3-yl)-8-fluoro-2-(((2R,7aS)-2-fluorotetrahydro-1H-pyrrolizin-7a(5H)-yl)methoxy)pyrido[4,3-d]pyrimidin-7-yl)-1,2-dihydronaphtho[2,1-b]furan-7-ol], for which the results for the IC50 in the experiment with GP2d cells and in the experiment on p-ERK in AGS cells were 9.29 µM and 0.588 µM, respectively.

With `Oc1cc(-c2c(F)cc3c(N4C[C@H]5CC[C@@H](C4)N5)nc(OCC4(CN5C6CCC5COC6)CC4)nc3c2F)c2c3c(ccc2c1)CCC3` [Example 28, 9-(2-((1-((3-oxa-8-azabicyclo[3.2.1]octan-8-yl)methyl)cyclopropyl)methoxy)-4-((1R,5S)-3,8-diazabicyclo[3.2.1]octan-3-yl)-6,8-difluoroquinazolin-7-yl)-2,3-dihydro-1H-cyclopenta[a]naphthalen-7-ol], the half-inhibitory concentration (IC50) in the experiment with GP2d cells worked out at 0.253 µM; in the experiment on p-ERK in AGS cells it was 0.087 µM.

Take `Oc1cc(-c2ncc3c(N4C[C@H]5CC[C@@H](C4)N5)nc(OC[C@@]45CCCN4C[C@H](F)C5)nc3c2F)c2c(c1)cc1n2CCC1` [Example 19, 5-(4-((1R,5S)-3,8-diazabicyclo[3.2.1]octan-3-yl)-8-fluoro-2-(((2R,7aS)-2-fluorotetrahydro-1H-pyrrolizin-7a(5H)-yl)methoxy)pyrido[4,3-d]pyrimidin-7-yl)-2,3-dihydro-1H-pyrrolo[1,2-a]indol-7-ol]: the IC50 in the experiment on GP2d cells turned out to be 3.06 µM.

On to `Oc1cc(-c2ncc3c(N4C[C@H]5CC[C@@H](C4)N5)nc(OC[C@@]45CCCN4C[C@H](F)C5)nc3c2F)c2c(ccc3occc32)c1` [Example 5, 9-(4-((1R,5S)-3,8-diazabicyclo[3.2.1]octan-3-yl)-8-fluoro-2-(((2R,7aS)-2-fluorotetrahydro-1H-pyrrolizin-7a(5H)-yl)methoxy)pyrido[4,3-d]pyrimidin-7-yl)naphtho[2,1-b]furan-7-ol], for which the values for the 50% inhibitory concentration (IC50) with GP2d cells and in the experiment on p-ERK in AGS cells were 2.86 µM and 0.037 µM, respectively.

Take `Oc1cc(-c2ccc3c(N4C[C@H]5CC[C@@H](C4)N5)nc(OCC4(CN5C6CCC5COC6)CC4)nc3c2F)c2c3c(ccc2c1)CCC3` [Example 27, 9-(2-((1-((3-oxa-8-azabicyclo[3.2.1]octan-8-yl)methyl)cyclopropyl)methoxy)-4-((1R,5S)-3,8-diazabicyclo[3.2.1]octan-3-yl)-8-fluoroquinazolin-7-yl)-2,3-dihydro-1H-cyclopenta[a]naphthalen-7-ol]: the values for the IC50 in the experiment on GP2d cells and in the experiment on p-ERK in AGS cells were 0.37 µM and 0.131 µM, respectively.

Take `C[C@@H]1COCCN1CC1(COc2nc(N3C[C@H]4CC[C@@H](C3)N4)c3ccc(-c4cc(O)cc5ccc6c(c45)CCC6)c(F)c3n2)CC1` [Example 25, 9-(4-((1R,5S)-3,8-diazabicyclo[3.2.1]octan-3-yl)-8-fluoro-2-((1-(((R)-3-methylmorpholino)methyl)cyclopropyl)methoxy)quinazolin-7-yl)-2,3-dihydro-1H-cyclopenta[a]naphthalen-7-ol]: the results for the half-maximal inhibitory concentration (IC50) in the experiment on GP2d cells and in the experiment with p-ERK in AGS cells were 0.303 µM and 0.018 µM, respectively.

`Oc1cc(-c2ccc3c(N4C[C@H]5CC[C@@H](C4)N5)nc(OCC4(CN5CCOCC5)CC4)nc3c2F)c2c3c(ccc2c1)CCC3` [Example 26, 9-(4-((1R,5S)-3,8-diazabicyclo[3.2.1]octan-3-yl)-8-fluoro-2-((1-(morpholinomethyl)cyclopropyl)methoxy)quinazolin-7-yl)-2,3-dihydro-1H-cyclopenta[a]naphthalen-7-ol]: the values for the IC50 in the experiment on GP2d cells and with p-ERK in AGS cells were 0.195 µM and 0.039 µM, respectively.

For the compound `Oc1cc(-c2ccc3c(N4C[C@H]5CC[C@@H](C4)N5)nc(OCC4(CN5CC6COCC6C5)CC4)nc3c2F)c2c3c(ccc2c1)CCC3` (stereo partly drawn) [Example 24, 9-(4-((1R,5S)-3,8-diazabicyclo[3.2.1]octan-3-yl)-8-fluoro-2-((1-((tetrahydro-1H-furo[3,4-c]pyrrol-5 (3H)-yl)methyl)cyclopropyl)methoxy)quinazolin-7-yl)-2,3-dihydro-1H-cyclopenta[a]naphthalen-7-ol], the results for the IC50 with GP2d cells and in the experiment on p-ERK in AGS cells were 0.12 µM and 0.024 µM, respectively.

Turning to `Oc1cc(-c2ncc3c(N4CC5CCC4CN5)nc(OC[C@@]45CCCN4C[C@H](F)C5)nc3c2F)c2c3c(ccc2c1)CCC3` (stereo partly drawn) [Example 7, 9-(4-(2,5-diazabicyclo[2.2.2]octan-2-yl)-8-fluoro-2-(((2R,7aS)-2-fluorotetrahydro-1H-pyrrolizin-7a(5H)-yl)methoxy)pyrido[4,3-d]pyrimidin-7-yl)-2,3-dihydro-1H-cyclopenta[a]naphthalen-7-ol], the half-maximal inhibitory concentration (IC50) with GP2d cells worked out at 0.92 µM; in the experiment on p-ERK in AGS cells, 0.149 µM.

Consider `Oc1cc(-c2ncc3c(N4C[C@H]5CC[C@@H](C4)N5)nc(OCC4(CN5C6CCC5COC6)CC4)nc3c2F)c2c3c(ccc2c1)CCC3` [Example 23, 9-(2-((1-((3-oxa-8-azabicyclo[3.2.1]octan-8-yl)methyl)cyclopropyl)methoxy)-4-((1R,5S)-3,8-diazabicyclo[3.2.1]octan-3-yl)-8-fluoropyrido[4,3-d]pyrimidin-7-yl)-2,3-dihydro-1H-cyclopenta[a]naphthalen-7-ol], for which the concentration for half-maximal inhibition (IC50) with GP2d cells stood at 0.908 µM; with p-ERK in AGS cells it was 0.033 µM.

With `Oc1cc(-c2ncc3c(N4C[C@H]5CC[C@@H](C4)N5)nc(OCCCN4C5CCC4COC5)nc3c2F)c2c3c(ccc2c1)CCC3` [Example 10, 9-(2-(3-(3-oxa-8-azabicyclo[3.2.1]octan-8-yl)propoxy)-4-((1R,5S)-3,8-diazabicyclo[3.2.1]octan-3-yl)-8-fluoropyrido[4,3-d]pyrimidin-7-yl)-2,3-dihydro-1H-cyclopenta[a]naphthalen-7-ol], the half-maximal inhibitory concentration (IC50) in the experiment on GP2d cells was 0.261 µM; with p-ERK in AGS cells, 0.205 µM.

`Oc1cc(-c2c(F)cc3c(N4C[C@H]5CC[C@@H](C4)N5)nc(OCC4(CN5CCOCC5)CC4)nc3c2F)c2c3c(ccc2c1)CCC3` [Example 29, 9-(4-((1R,5S)-3,8-diazabicyclo[3.2.1]octan-3-yl)-6,8-difluoro-2-((1-(morpholinomethyl)cyclopropyl)methoxy)quinazolin-7-yl)-2,3-dihydro-1H-cyclopenta[a]naphthalen-7-ol]: the IC50 was 0.273 µM in the experiment with GP2d cells and 0.044 µM with p-ERK in AGS cells.

`Oc1cc(-c2c(Cl)cc3c(N4C[C@H]5CC[C@@H](C4)N5)nc(OC[C@@]45CCCN4C[C@H](F)C5)nc3c2F)c2c3c(ccc2c1)CCC3` [Example 31, 9-(4-((1R,5S)-3,8-diazabicyclo[3.2.1]octan-3-yl)-6-chloro-8-fluoro-2-(((2R,7aS)-2-fluorotetrahydro-1H-pyrrolizin-7a(5H)-yl)methoxy)quinazolin-7-yl)-2,3-dihydro-1H-cyclopenta[a]naphthalen-7-ol] returned an IC50 with GP2d cells of 0.737 µM.

With `Oc1cc(-c2ncc3c(N4C[C@H]5CC[C@@H](C4)N5)nc(OC[C@@]45CCCN4C[C@H](F)C5)nc3c2F)c2c(ccn3cccc23)c1` [Example 22, 10-(4-((1R,5S)-3,8-diazabicyclo[3.2.1]octan-3-yl)-8-fluoro-2-(((2R,7aS)-2-fluorotetrahydro-1H-pyrrolizin-7a(5H)-yl)methoxy)pyrido[4,3-d]pyrimidin-7-yl)pyrrolo[2,1-a]isoquinolin-8-ol], it took 3.34 µM to reach half-maximal inhibition in the experiment on GP2d cells (IC50).

Consider `Oc1cc(-c2cc3nc(OC[C@@]45CCCN4C[C@H](F)C5)nc(N4C[C@H]5CC[C@@H](C4)N5)c3cn2)c2c3c(ccc2c1)CCC3` [Example 30, 9-(4-((1R,5S)-3,8-diazabicyclo[3.2.1]octan-3-yl)-2-(((2R,7aS)-2-fluorotetrahydro-1H-pyrrolizin-7a(5H)-yl)methoxy)pyrido[4,3-d]pyrimidin-7-yl)-2,3-dihydro-1H-cyclopenta[a]naphthalen-7-ol], for which inhibition in the experiment with GP2d cells was half-maximal at 0.409 µM (IC50). Compared with the last compound, the IC50 is about 8.2-fold lower.
